Experimental data taken from patent EP2140864A2 (H. Lundbeck A/S, priority 2001, dated 2002).

Biological target: T1, human GAL3 receptor (Homo sapiens, UniProt O60755)
T1 construct: expressed in transfected cells
T1 sequence (O60755 1-368): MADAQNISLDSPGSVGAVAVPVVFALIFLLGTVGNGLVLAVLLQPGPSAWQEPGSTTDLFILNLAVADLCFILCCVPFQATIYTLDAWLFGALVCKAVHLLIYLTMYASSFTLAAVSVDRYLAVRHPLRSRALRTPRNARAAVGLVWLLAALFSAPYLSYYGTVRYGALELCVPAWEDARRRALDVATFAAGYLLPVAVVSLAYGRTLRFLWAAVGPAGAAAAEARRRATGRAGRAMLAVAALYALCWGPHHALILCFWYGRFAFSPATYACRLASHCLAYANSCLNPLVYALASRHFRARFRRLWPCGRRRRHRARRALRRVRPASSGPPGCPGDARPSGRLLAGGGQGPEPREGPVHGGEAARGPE
Experiment: Radioligand binding at cloned human GAL3 receptor
Conditions: pyrimidines, cloned human receptor; read-out: Ki GalR3
Method: The present invention provides for a method of determining the binding affinity of a GAL3 antagonist, wherein the GAL3 antagonist is dissolved in a "suitable solvent". A "suitable solvent" means one which permits the measurement of binding affinity of the GAL3 antagonist to the human GAL3 receptor at concentrations less than 1 µM, preferably less than 100 nM. Examples of solvents include, but are not limited to, DMSO, ethanol, N,N-dimethylacetamide, or water. For indolones, the preferred solvent is 3% DMSO (final concentration in the assay). For pyrimidines, the preferred solvent is 1% ethanol/0.09% polypuronic acid F-127 (final concentration in the assay). For any other type of compounds, the preferred solvent is the solvent which permits the measurement of binding affinity of a GAL3 antagonist at the lowest concentration. Once a suitable solvent is ascertained for the binding assay of the human GAL3 receptor, the same solvent is used in assays to determine the binding affinity at the GAL1 receptor, the serotonin transporter, the norepinephrine transporter, and the dopamine transporter. A solvent of 0.4% DMSO is used in the central monoamine oxidase enzyme assay.
The binding properties of the pyrimidines of the present invention were evaluated at the cloned human galanin receptors, GAL1, GAL2, and GAL3, using protocols described herein.
The binding properties of the indolones of the present invention were evaluated at the cloned human galanin receptors, GAL1, GAL2, and GAL3, using protocols described herein.
LM(tk-) cells were stably transfected with the human GAL1 or GAL3 receptor. CHO cells were stably transfected with the human GAL2 receptor.
cDNAs for the human and rat GAL1, and human and rat GAL3 receptors were transfected with a G-418 resistant gene into the mouse fibroblast LM(tk-) cell line by a calcium phosphate transfection method (Cullen, 1987). Stably transfected cells were selected with G-418. Human and rat GAL2 receptors were similarly transfected into CHO cells.
Membranes were harvested from stably transfected LM(tk-) cells. Adherent cells were washed twice in ice-cold phosphate buffered saline (138 mM NaCl, 8.1 mM Na2HPO4, 2.5 mM KCl, 1.2 mM KH2PO4, 0.9 mM CaCl2, 0.5 mM MgCl2, pH 7.4) and lysed by sonication in ice-cold sonication buffer (20 mM Tris-HCl, 5 mM EDTA, pH 7.7). Large particles and debris were cleared by low speed centrifugation (200 x g, 5 min, 4°C). Membranes were collected from the supernatant fraction by centrifugation (32,000 x g, 18 min, 4°C), washed with ice-cold hypotonic buffer, and collected again by centrifugation (32,000 x g, 18 min, 4°C). The final membrane pellet was resuspended by sonication into a small volume of ice-cold binding buffer (-1 ml for every 5 plates: 10 mM NaCl, 20 mM HEPES, 0.22 mM KH2PO4, 1.26 mM CaCl2, 0.81 mM MgSO4, pH 7.4). Protein concentration was measured by the Bradford method (Bradford, 1976) using Bio-Rad Reagent, with bovine serum albumin as a standard. Membranes were held on ice for up to one hour and used fresh, or flash frozen and stored in liquid nitrogen. Membranes were prepared similarly from CHO cells.
Galanin Recentors: Binding assays were performed according to the following published methods: human GAL3 (PCT International Publication No. WO 98/15570), human GAL1 (PCT International Publication No. WO 95/2260), human GAL2 (PCT International Publication No. WO 97/26853).
Binding data were analyzed using nonlinear regression and statistical techniques available in the GraphPAD Prism package (San Diego, CA). Enzymatic assay data were derived from a standard curve of reference compound data.

| SMILES | Ki [nM] |
| --- | --- |
| Cc1ccc(Nc2cc(N(C)C)nc(N3CCN(c4ccc(Br)cn4)CC3)n2)cc1 [Example 140] | 169 |
| Cc1ccc(Nc2cc(N(C)C)nc(N3CCN(c4ccc(C(N)=O)cn4)CC3)n2)cc1 [Example 141, 6-{4-[4-(DIMETHYLAMINO)-6-(4-TOLUDINO)-2-PYRIMIDINYL] -1-PIPERAZINYL}NICOTINAMIDE] | 509 |
| COc1cccc(CN2CCN(c3nc(Nc4ccc(C)cc4)cc(N(C)C)n3)CC2)c1 [Example 142] | 28 |
| COc1cccc(Nc2cc(N(C)C)nc(N3CCN(c4ccc(Br)cn4)CC3)n2)c1 [Example 143] | 144 |
| COc1cccc(Nc2cc(N(C)C)nc(N3CCN(Cc4ccccn4)CC3)n2)c1 [Example 144] | 529 |
| COc1cccc(Nc2cc(N(C)C)nc(N3CCN(CC4CCCCC4)CC3)n2)c1 [Example 145] | 155 |
| COc1cccc(Nc2cc(N(C)C)nc(N3CCN(Cc4ccsc4)CC3)n2)c1 [Example 146] | 72 |
| COc1cccc(Nc2cc(N(C)C)nc(N3CCN(Cc4ccncc4)CC3)n2)c1 [Example 147] | 640 |
| COc1cccc(CN2CCN(c3nc(Nc4cccc(OC)c4)cc(N(C)C)n3)CC2)c1 [Example 148] | 276 |
| COc1cccc(CCNc2nc(Nc3ccc(C)cc3)cc(N(C)C)n2)c1 [Example 149] | 138 |
| COc1ccccc1CCNc1nc(Nc2ccc(C)cc2)cc(N(C)C)n1 [Example 150] | 180 |
| CN(C)c1cc(NC2CCC(OCc3ccccc3)CC2)nc(N2CCN(Cc3ccccc3)CC2)n1 (stereo not drawn) [Example 152] | 172 |
| Cc1ccc(Nc2cc(N(C)C)nc(N3CCN(CC4CCCO4)CC3)n2)cc1 (stereo not drawn) [Example 154] | 441 |
| CN(C)c1cc(Nc2cccc(O)c2)nc(N2CCN(Cc3ccccc3)CC2)n1 [Example 155] | 316 |
| CN(C)c1cc(Nc2ccc(F)cc2)nc(N2CCN(Cc3ccccc3)CC2)n1 [Example 156] | 61 |
| CC1CCC(Nc2cc(N(C)C)nc(N3CCN(Cc4ccccc4)CC3)n2)CC1 (stereo not drawn) [Example 157] | 273 |
| CN(C)c1ccc(Nc2cc(N(C)C)nc(N3CCN(Cc4ccccc4)CC3)n2)cc1 [Example 158] | 941 |

| SMILES | Ki [nM] |
| --- | --- |
| Cc1ccc(Nc2cc(N(C)C)nc(N3CCN(CCc4ccccc4)CC3)n2)cc1 [Example 159] | 180 |
| CN(C)c1cc(Nc2cccc(Cl)c2)nc(N2CCN(Cc3ccccc3)CC2)n1 [Example 160] | 26 |
| Cc1ccc(Nc2cc(N(C)C)nc(N(C)CCc3ccccn3)n2)cc1 [Example 161] | 114 |
| Cc1ccc(Nc2cc(N(C)C)nc(NCCCc3ccccc3)n2)cc1 [Example 162] | 42 |
| COc1cccc(Nc2cc(N(C)C)nc(N3CCN(C4CCCCC4)CC3)n2)c1 [Example 163] | 500 |
| CN(C)c1cc(Nc2cccc(F)c2)nc(N2CCN(Cc3ccccc3)CC2)n1 [Example 164] | 60 |
| COc1cccc(Nc2cc(N(C)C)nc(N3CCN(Cc4cccs4)CC3)n2)c1 [Example 165] | 139 |
| COc1cccc(Nc2cc(N(C)C)nc(N3CCN(Cc4ccccc4OC)CC3)n2)c1 [Example 166] | 263 |
| CN(C)c1cc(N[C@H]2CC3CC[C@]2(C)C3(C)C)nc(N2CCN(Cc3ccccc3)CC2)n1 [Example 167] | 50 |
| CN(C)c1cc(NC2C3CC4CC(C3)CC2C4)nc(N2CCN(Cc3ccccc3)CC2)n1 (stereo not drawn) [Example 168] | 50 |
| CN(C)c1cc(NC2CCC(C(C)(C)C)CC2)nc(N2CCN(Cc3ccccc3)CC2)n1 (stereo not drawn) [Example 169] | 77 |
| CN(C)c1cc(NC2CCCCCCC2)nc(N2CCN(Cc3ccccc3)CC2)n1 [Example 170] | 91 |
| CN(C)c1cc(Nc2ccc(Cl)cc2)nc(N2CCN(Cc3ccccc3)CC2)n1 [Example 171] | 25 |
| Cc1ccc(Nc2cc(N(C)C)nc(N3CCN(Cc4ccccc4)CC3)n2)cc1Cl [Example 172] | 20 |
| CN(C)c1cc(NC2CCc3ccccc3C2)nc(N2CCN(Cc3ccccc3)CC2)n1 (stereo not drawn) [Example 173] | 117 |
| Cc1ccc(Nc2cc(N(C)C)nc(N3CCN(Cc4cccs4)CC3)n2)cc1 [Example 174] | 325 |
